Test results published in ChEMBL document CHEMBL1143604, “Structure-activity relationship studies optimizing the antiproliferative activity of novel cyclic somatostatin analogues containing a restrained cyclic beta-amino acid” (J Med Chem, 2005).

Tested on: A-431
Assay: Antiproliferative activity against human epidermiod carcinoma A431 cells
Format: functional, cell-based

IC50 [µM]	Structure (SMILES)
5	CCCC[C@@H]1NC(=O)[C@@H](Cc2c[nH]c3ccccc23)NC(=O)[C@H](Cc2ccc(O)cc2)NC(=O)[C@H]2C[C@@H](C)C=C(C)[C@H]2NC(=O)[C@H]([C@@H](C)OC(c2ccccc2)(c2ccccc2)c2ccccc2)NC1=O
32	CCCC[C@@H]1NC(=O)[C@@H](Cc2c[nH]c3ccccc23)NC(=O)[C@H](Cc2ccc(O)cc2)NC(=O)[C@@H]2CCCN2C(=O)[C@H](Cc2ccccc2)NC(=O)[C@H]([C@@H](C)O)NC1=O
> 100	CCCC[C@@H]1NC(=O)[C@@H](Cc2c[nH]c3ccccc23)NC(=O)[C@H](Cc2ccc(O)cc2)NC(=O)[C@H]2C[C@@H](C)C=C(C)[C@H]2NC(=O)[C@H]([C@@H](C)O)NC1=O
6	CCCC[C@@H]1NC(=O)[C@@H](Cc2c[nH]c3ccccc23)NC(=O)[C@@H](Cc2ccc(O)cc2)NC(=O)[C@H]2C[C@@H](C)C=C(C)[C@H]2NC(=O)[C@H]([C@@H](C)OC(c2ccccc2)(c2ccccc2)c2ccccc2)NC1=O
26	CCCC[C@@H]1NC(=O)[C@H](Cc2c[nH]c3ccccc23)NC(=O)[C@@H](Cc2ccc(O)cc2)NC(=O)[C@@H]2CCCN2C(=O)[C@H](Cc2ccccc2)NC(=O)[C@@H]([C@@H](C)OC(c2ccccc2)(c2ccccc2)c2ccccc2)NC1=O
> 50	C[C@@H](O)[C@@H]1NC(=O)C(CCCCN)NC(=O)[C@@H](Cc2c[nH]c3ccccc23)NC(=O)C(Cc2ccccc2)NC(=O)[C@@H]2CCCN2C(=O)C(Cc2ccccc2)NC1=O (single isomer, unassigned)
